Laboratory results as given in patent publication US9845297B2, “Antimicrobial compounds and methods of making and using the same” (Melinta Therapeutics, Inc., priority 2009, dated 2017).

Test system: Eschericia coli strain ATCC25922
Experiment: standard microdilution assay to determine minimum inhibitory concentrations (MICs)
Assay type: cell-based
Conditions: Escherichia coli, ATCC25922, Eschericia coli strain ATCC25922, standard microdilution assay; read-out: E. coli ATCC25922 MIC
Description: Minimum inhibitory concentrations (MICs) are determined by the microdilution method, typically in a final volume of 100 microliters, according to protocols outlined by The Clinical and Laboratory Standards Institute [CLSI; formerly the National Committee for Clinical Laboratory Standards (NCCLS)]. See CLSI: Methods for dilution antimicrobial susceptibility tests for bacteria that grow aerobically; approved standard-fifth edition. Wayne, Pa.: NCCLS; 2000. The assays can be also be performed in microtiter trays according to conventional methodologies as published by the CLSI. See CLSI. Methods for Dilution Antimicrobial Susceptibility Tests for Bacteria That Grow Aerobically; Approved Standard-Seventh Edition. CLSI Document M7-A7 [ISBN 1-56238-587-9] CLSI, 940 West Valley Road, Suite 1400, Wayne Pa. 19087-1898 USA, 2006).
The compounds of the present invention were tested for antimicrobial activity. The compounds were run against Eschericia coli strain ATCC25922 using a standard microdilution assay to determine minimum inhibitory concentrations (MICs). […] A “N/A” means that data is unavailable. It will be recognized by one skilled in the art that the compounds can be assessed against other bacterial organisms and that the presentation of data for activity against Eschericia coli is illustrative and in no way is intended to limit the scope of the present invention. The compounds of the present invention can be assayed against a range of other microorganisms depending upon the performance activity desired to be gathered. Furthermore, the “+”, “−”, and “N/A” representation and the selection of a cutoff value of 16 micrograms/ml is also illustrative and in no way is intended to limit the scope of the present invention.

MIC [µg/mL] | SMILES
> 16 | NCCCNCc1ccc(-c2c[nH]c(NC(=O)Nc3cc(Cl)c(Cl)cc3Cl)nc2=O)cc1F [Compound 388]
> 16 | CSc1ccc(C(=O)Nc2ccn(CCCC(CCCNC(=N)N)NCCCN)c(=O)n2)cc1 (stereo not drawn) [Compound 175]
> 16 | NCCCCCN1CCC(c2c[nH]c(NC(=O)Nc3cc(F)c(F)cc3F)nc2=O)CC1 [Compound 538]
> 16 | NCCCN(CCCN)Cc1ccc(-c2c[nH]c(NC(=O)Nc3cc(F)c(F)cc3F)nc2=O)cc1F [Compound 311]
> 16 | NCCCC(N)c1ccc(-n2ccc(NC(N)=O)nc2=O)cc1 (stereo not drawn) [Compound 146]
> 16 | CN(C(=O)C[C@@H](N)CCCNC(=N)N)C1CNC(NC(N)=O)=NC1=O (stereo partly drawn) [Compound 100]
> 16 | NCc1ccc(-c2c[nH]c(NC(=O)Nc3ccccc3OC(F)(F)F)nc2=O)cc1C(F)(F)F [Compound 248]
> 16 | NCCCNCc1ccc(-c2c[nH]c(NC(=O)Nc3c(Cl)cccc3Cl)nc2=O)cc1F [Compound 479]
> 16 | CN(C)c1ccc(NC(=O)Nc2ccn(CCC[C@H](CCCNC(=N)N)NCCCN)c(=O)n2)cc1 [Compound 152]
> 16 | NCCCNCc1ccc(-c2c[nH]c(NC(=O)Nc3ccccc3OCCCN)nc2=O)cc1 [Compound 1296]
> 16 | O=C(O)CCCNCc1ccc(-c2c[nH]c(NC(=O)Nc3cc(F)c(F)cc3F)nc2=O)cc1 [Compound 327]
> 16 | N=C(N)NCCCNCc1ccc(-c2c[nH]c(NC(=O)NC3CN(Cc4cc(F)c(F)cc4F)C3)nc2=O)cc1 [Compound 712]
> 16 | NCCCN1CCCN(c2c[nH]c(NC(=O)Nc3ccccc3OC(F)(F)F)nc2=O)CC1 [Compound 492]
> 16 | Cc1c(Cl)cc2nc(Nc3nc(=O)c(-c4ccc(CN(CCCN)CCCN)c(F)c4)c[nH]3)oc2c1Cl [Compound 472]
< 16 | NCCCNCc1ccc(-c2c[nH]c(Nc3nc4cc(F)c(F)cc4o3)nc2=O)cc1F [Compound 471]
> 16 | CSCCNCc1ccc(-c2c[nH]c(NC(=O)Nc3ccccc3OC(F)(F)F)nc2=O)cc1Cl [Compound 260]
> 16 | Cn1c(Nc2nc(=O)c(-c3ccc(CN(CCCN)CCCN)c(F)c3)c[nH]2)nc2ccccc21 [Compound 428]
> 16 | NCCCCN1CCN(c2c[nH]c(NC(=O)Nc3ccccc3OC(F)(F)F)nc2=O)CC1 [Compound 522]
> 16 | N=C(N)NCCC[C@@H](CCCn1ccc(NC(=O)Nc2ccc(F)c(F)c2)nc1=O)NCCCN [Compound 160]
> 16 | NCCCN(Cc1ccc(-c2c[nH]c(NC(=O)Nc3ccccc3OC(F)(F)F)nc2=O)cc1)Cc1nccs1 [Compound 340]
> 16 | NCCCNCc1ccc(-c2c[nH]c(NC(=O)NCCc3c(Cl)cccc3Cl)nc2=O)cc1F [Compound 437]
< 16 | NCCCNCc1ccc(-c2c[nH]c(Nc3ccc(C(F)(F)F)cc3)nc2=O)cc1C(F)(F)F [Compound 382]
> 16 | NCCCNCc1ccc(-c2c[nH]c(NC(=O)NCc3nc4ccccc4[nH]3)nc2=O)cc1F [Compound 556]

MIC [µg/mL] | SMILES
> 16 | NCCCNCc1ccc(-c2c[nH]c(NC(=O)Nc3ccc(N4C(=O)C=CC4=O)cc3)nc2=O)cc1F [Compound 417]
> 16 | NCCCNCc1ccc(-c2c[nH]c(NC(=O)NCCc3ccccc3OC(F)(F)F)nc2=O)cc1F [Compound 512]
< 16 | NCCCN(CCCN)Cc1ccc(-c2c[nH]c(Nc3nc4cc(F)c(F)cc4[nH]3)nc2=O)cc1 [Compound 468]
> 16 | NCCCN1CCCC(c2c[nH]c(NC(=O)Nc3ccccc3OC(F)(F)F)nc2=O)CC1 (stereo not drawn) [Compound 516]
> 16 | NCCCN(CCCc1cccnc1)Cc1ccc(-c2c[nH]c(NC(=O)Nc3ccccc3OC(F)(F)F)nc2=O)cc1 [Compound 372]
> 16 | N=C(N)NCCC[C@@H](CCCn1ccc(NC(N)=O)nc1=O)NCCCN [Compound 130]
< 16 | NCCCN(CCCN)Cc1ccc(-c2c[nH]c(Nc3nc4cc(F)c(F)cc4o3)nc2=O)cc1F [Compound 356]
> 16 | NCCCCNC1CCN(c2c[nH]c(NC(=O)Nc3cc(F)c(F)cc3F)nc2=O)CC1 [Compound 619]
> 16 | CSCCNCc1ccc(-c2c[nH]c(NC(=O)NCc3ccc(F)cc3)nc2=O)cc1Cl [Compound 267]
> 16 | O=C(O)CCNCc1ccc(-c2c[nH]c(NC(=O)Nc3ccccc3OC(F)(F)F)nc2=O)cc1 [Compound 300]
< 16 | NCCCN(CCC1CC1)Cc1ccc(-c2c[nH]c(NC(=O)Nc3cc(F)c(F)cc3F)nc2=O)cc1 [Compound 401]
> 16 | O=C(Nc1nc(=O)c(-c2ccc(CNCCCc3cccnc3)cc2)c[nH]1)Nc1cc(F)c(F)cc1F [Compound 373]
< 16 | NCCCNCc1ccc(-c2c[nH]c(NC(=O)Nc3ccccc3OC(F)(F)F)nc2=O)cc1Cl [Compound 242]
> 16 | N=C(N)NCCC[C@H](N)CCCn1ccc(N)nc1=O [Compound 118]
> 16 | NCCCNCc1c(F)cc(-c2c[nH]c(NC(=O)Nc3ccccc3OC(F)(F)F)nc2=O)cc1F [Compound 285]
> 16 | NCCCN(CCCN)Cc1ccc(-c2c[nH]c(Nc3nc4ccc(C(F)(F)F)cc4o3)nc2=O)cc1F [Compound 404]
< 16 | COc1ccc2nc(Nc3nc(=O)c(-c4ccc(CN(CCCN)CCCN)c(F)c4)c[nH]3)[nH]c2c1 [Compound 361]
> 16 | NCCCNCc1ccc(-n2cc(F)c(NC(N)=O)nc2=O)cc1 [Compound 138]
> 16 | NCCCCN1CCC(c2c[nH]c(NC(=O)Nc3cccc(Cl)c3F)nc2=O)CC1 [Compound 536]
> 16 | NCCCNCc1ccc(-c2c[nH]c(NC(=O)NCCc3nc4cc(F)c(F)cc4[nH]3)nc2=O)cc1F [Compound 554]
> 16 | N=C(N)NCCCN(CCCN)Cc1ccc(-c2c[nH]c(NC(=O)NCCc3ccc(F)cc3)nc2=O)cc1 [Compound 465]
> 16 | NCCCCCN1CCN(c2c[nH]c(Nc3nc4cc(F)c(F)cc4[nH]3)nc2=O)CC1 [Compound 541]
> 16 | Cn1ccnc1CNCc1ccc(-c2c[nH]c(NC(=O)Nc3ccccc3OC(F)(F)F)nc2=O)cc1 [Compound 290]

MIC [µg/mL] | SMILES
< 16 | N=C(N)NCCCN(CCCN)Cc1ccc(-c2c[nH]c(NC(N)=O)nc2=O)cc1 [Compound 168]
> 16 | O=C(Nc1nc(=O)c(-c2ccc(CNCCCc3cccnc3)cc2)c[nH]1)Nc1ccccc1OC(F)(F)F [Compound 364]
> 16 | CN(C(=O)C[C@H](CCCNC(=N)N)NC(=O)CCc1c[nH]cn1)C1CNC(NC(N)=O)=NC1=O (stereo partly drawn) [Compound 111]
< 16 | NCCCNCc1ccc(-c2c[nH]c(NC(=O)Nc3ccccc3OC(F)(F)F)nc2=O)c(F)c1 [Compound 432]
> 16 | O=C(Nc1nc(=O)c(-c2ccc(CNCCc3ccncc3)cc2)c[nH]1)Nc1cc(F)c(F)cc1F [Compound 322]
> 16 | NCCCN(CCCc1cccnc1)Cc1ccc(-c2c[nH]c(NC(=O)Nc3cc(F)c(F)cc3F)nc2=O)cc1 [Compound 399]
> 16 | NCCCNCc1ccc(-c2c[nH]c(NC(=O)Nc3ccccc3OCCCO)nc2=O)cc1 [Compound 1294]
> 16 | NCc1ccc(-c2c[nH]c(NC(=O)Nc3cc(F)c(F)cc3F)nc2=O)cc1 [Compound 238]
> 16 | N=C(N)NCCCNCc1ccc(-c2c[nH]c(NC(=O)NC3CCN(Cc4cc(F)c(F)cc4F)CC3)nc2=O)cc1 [Compound 652]
> 16 | N=C(N)NCCCC(CCCN)Cc1ccc(-c2c[nH]c(NC(=O)NCCc3cccc(Cl)c3)nc2=O)cc1 (stereo not drawn) [Compound 466]
< 16 | CN1CCN(c2ccc(NC(=O)Nc3ccn(CCCC(CCCNC(=N)N)NCCCN)c(=O)n3)cc2)CC1 (stereo not drawn) [Compound 185]
> 16 | NCCC[C@H](N)CCCn1ccc(NC(N)=O)nc1=O [Compound 122]
> 16 | NCCCN(CCc1ccncc1)Cc1ccc(-c2c[nH]c(NC(=O)Nc3cc(F)c(F)cc3F)nc2=O)cc1 [Compound 354]
< 16 | NCCCNCc1ccc(-c2c[nH]c(Nc3nc4ccccc4[nH]3)nc2=O)cc1 [Compound 334]
> 16 | Cc1nc(-c2cccc(NC(=O)Nc3ccn(CCC[C@H](CCCNC(=N)N)NCCCN)c(=O)n3)c2)no1 [Compound 151]
> 16 | N=C(N)NCCCN(CCC1CC1)Cc1ccc(-c2c[nH]c(NC(=O)Nc3cc(F)c(F)cc3F)nc2=O)cc1 [Compound 680]
> 16 | NCCC[C@H](N)CCCn1cnc(N)nc1=O [Compound 113]
> 16 | N=C(N)NCCC[C@H](N)CCCn1ccc(NC(N)=O)nc1=O [Compound 121]
> 16 | NCc1cn(-c2ccc(-n3cnc(NC(N)=O)nc3=O)cc2)nn1 [Compound 140]
> 16 | N=C(N)NCc1ccc(-n2ccc(N)nc2=O)cc1 [Compound 127]
> 16 | NCc1ccc(-n2ccc(NC(N)=O)nc2=O)cc1 [Compound 139]
> 16 | NCCCNCc1ccc(-c2c[nH]c(NC(=O)Nc3cc(F)c(F)cc3F)nc2=O)cc1F [Compound 265]
> 16 | N=C(N)NCCC[C@H](N)CCCn1cnc(N)nc1=O [Compound 114]
